# Experimental data published in ChEMBL document CHEMBL1201862, “PubChem BioAssay data set” (2004).
#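 Protocol summary: plate cells (96-well), add compound at 5 concentrations, incubate 48 h, interpolate endpoints linearly. GI50 = concentration required for 50% inhibition of growth.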 Calls of active or inactive are those of the source. No stated cut-off is given here; in the data, active = GI50 up to about 1.1 µM and inactive = higher.
# Tests used:
# Test in all cases: inhibition of tumour cell growth, NCI panel, 48 h
# [1] = tested on: 786-0
# [2] = tested on: BT-549
# [3] = tested on: CAKI-1
# [4] = tested on: CCRF-CEM
# [5] = tested on: COLO 205
# [6] = tested on: DU-145
# [7] = tested on: EKVX
# [8] = tested on: HCC 2998
# [9] = tested on: HCT-116
# [10] = tested on: HCT-15
# [11] = tested on: HL-60
# [12] = tested on: HT-29
# [13] = tested on: M14
# [14] = tested on: MCF7
# [15] = tested on: NCI-H522
# [16] = tested on: OVCAR-5
# [17] = tested on: SF-268
# [18] = tested on: T47D
# [19] = tested on: UACC-62
# [20] = tested on: HOP-92
Compound,GI50 [1],GI50 [2],GI50 [3],GI50 [4],GI50 [5],GI50 [6],GI50 [7],GI50 [8],GI50 [9],GI50 [10],GI50 [11],GI50 [12],GI50 [13],GI50 [14],GI50 [15],GI50 [16],GI50 [17],GI50 [18],GI50 [19],GI50 [20]
O=c1c2ncn(C3CCCO3)c2n(-c2ccccc2)c(=S)n1-c1ccccc1 (configuration not stated),> 100 µM (inactive),> 100 µM (inactive),> 100 µM (inactive),> 100 µM (inactive),> 100 µM (inactive),> 100 µM (inactive),> 100 µM (inactive),> 100 µM (inactive),> 100 µM (inactive),> 100 µM,> 100 µM (inactive),> 100 µM (inactive),> 100 µM (inactive),> 100 µM (inactive),> 100 µM (inactive),> 100 µM (inactive),> 100 µM (inactive),> 100 µM (inactive),> 100 µM (inactive),
NC(=S)N/N=C1\CCCCC1C(O)(C(F)(F)Cl)C(F)(F)Cl (configuration not stated),> 10 µM (inactive),> 10 µM (inactive),,> 10 µM (inactive),> 10 µM (inactive),> 10 µM (inactive),> 10 µM (inactive),> 10 µM (inactive),> 10 µM (inactive),> 10 µM,> 10 µM (inactive),> 10 µM (inactive),> 10 µM (inactive),> 10 µM (inactive),> 10 µM (inactive),> 10 µM (inactive),> 10 µM (inactive),> 10 µM (inactive),> 10 µM (inactive),> 10 µM (inactive)
Cc1nn(C(=O)Cc2ccccc2)c2c1C(c1ccccc1O)SC(=N)N2 (configuration not stated),> 100 µM (inactive),> 100 µM (inactive),> 100 µM (inactive),> 100 µM (inactive),> 100 µM (inactive),> 100 µM (inactive),> 100 µM (inactive),> 100 µM (inactive),> 100 µM (inactive),> 100 µM,> 100 µM (inactive),> 100 µM (inactive),> 100 µM (inactive),> 100 µM (inactive),> 100 µM (inactive),,> 100 µM (inactive),> 100 µM (inactive),> 100 µM (inactive),
O=C1c2c(Br)sc(Br)c2[C@H]2NC(=S)O[C@@H]12,14.2 µM (inactive),16.5 µM (inactive),11.8 µM (inactive),2.15 µM (inactive),13.4 µM (inactive),16 µM (inactive),20.4 µM (inactive),20.5 µM (inactive),10.7 µM (inactive),4.18 µM,,14.5 µM (inactive),14.3 µM (inactive),16.1 µM (inactive),1.86 µM (inactive),19.2 µM (inactive),15 µM (inactive),21.8 µM (inactive),15.7 µM (inactive),18 µM (inactive)
CC1(C)CN=C(c2ccc3ccccc3c2O)N1,> 100 µM (inactive),> 100 µM (inactive),> 100 µM (inactive),> 100 µM (inactive),> 100 µM (inactive),> 100 µM (inactive),> 100 µM (inactive),> 100 µM (inactive),> 100 µM (inactive),> 100 µM,> 100 µM (inactive),,> 100 µM (inactive),> 100 µM (inactive),,> 100 µM (inactive),> 100 µM (inactive),> 100 µM (inactive),> 100 µM (inactive),> 100 µM (inactive)
O=C(O)C1SCCS1,> 100 µM (inactive),> 100 µM (inactive),,> 100 µM (inactive),> 100 µM (inactive),> 100 µM (inactive),> 100 µM (inactive),> 100 µM (inactive),> 100 µM (inactive),> 100 µM,> 100 µM (inactive),> 100 µM (inactive),> 100 µM (inactive),> 100 µM (inactive),,> 100 µM (inactive),> 100 µM (inactive),> 100 µM (inactive),> 100 µM (inactive),> 100 µM (inactive)
COc1cc2cnc(-c3ccccc3)cc2cc1OC,36.4 µM (inactive),23.2 µM (inactive),20.7 µM (inactive),,20.9 µM (inactive),37.3 µM (inactive),3.22 µM (inactive),,45.6 µM (inactive),19 µM,20.3 µM (inactive),24.9 µM (inactive),30.7 µM (inactive),18.5 µM (inactive),20 µM (inactive),33.2 µM (inactive),35.7 µM (inactive),26.7 µM (inactive),10 µM (inactive),17.5 µM (inactive)
C1CCSCCCCSCCCCSCCCCSC1,> 100 µM (inactive),> 100 µM (inactive),> 100 µM (inactive),,> 100 µM (inactive),> 100 µM (inactive),> 100 µM (inactive),> 100 µM (inactive),> 100 µM (inactive),> 100 µM,,> 100 µM (inactive),> 100 µM (inactive),> 100 µM (inactive),> 100 µM (inactive),> 100 µM (inactive),> 100 µM (inactive),> 100 µM (inactive),> 100 µM (inactive),> 100 µM (inactive)
